PMC5564600 (Oncotarget, 2017)
Like-named read-outs stand apart in the source and are kept apart here.

How the values were obtained:
Assay in all cases: biochemical
Assay type in all cases: binding
[1] = biological target: T1, panel of 442 kinases (Homo sapiens, UniProt P00519, F317I); conditions: for remaining activity at 1 µM: read-out: % of control at 1 µM; for remaining activity at 10 µM: read-out: % of control at 10 µM
T1 construct: purchased Ambit Biosciences (scanMAXX KINOMEscan)

[2] = biological target: T2, panel of 442 kinases (Homo sapiens, UniProt P08581, Y1235D); conditions: kinase MET(Y1235D); for remaining activity at 1 µM: read-out: % of control at 1 µM
T2 construct: purchased Ambit Biosciences (scanMAXX KINOMEscan)
T2 sequence (P08581 25-1390 Y1235D): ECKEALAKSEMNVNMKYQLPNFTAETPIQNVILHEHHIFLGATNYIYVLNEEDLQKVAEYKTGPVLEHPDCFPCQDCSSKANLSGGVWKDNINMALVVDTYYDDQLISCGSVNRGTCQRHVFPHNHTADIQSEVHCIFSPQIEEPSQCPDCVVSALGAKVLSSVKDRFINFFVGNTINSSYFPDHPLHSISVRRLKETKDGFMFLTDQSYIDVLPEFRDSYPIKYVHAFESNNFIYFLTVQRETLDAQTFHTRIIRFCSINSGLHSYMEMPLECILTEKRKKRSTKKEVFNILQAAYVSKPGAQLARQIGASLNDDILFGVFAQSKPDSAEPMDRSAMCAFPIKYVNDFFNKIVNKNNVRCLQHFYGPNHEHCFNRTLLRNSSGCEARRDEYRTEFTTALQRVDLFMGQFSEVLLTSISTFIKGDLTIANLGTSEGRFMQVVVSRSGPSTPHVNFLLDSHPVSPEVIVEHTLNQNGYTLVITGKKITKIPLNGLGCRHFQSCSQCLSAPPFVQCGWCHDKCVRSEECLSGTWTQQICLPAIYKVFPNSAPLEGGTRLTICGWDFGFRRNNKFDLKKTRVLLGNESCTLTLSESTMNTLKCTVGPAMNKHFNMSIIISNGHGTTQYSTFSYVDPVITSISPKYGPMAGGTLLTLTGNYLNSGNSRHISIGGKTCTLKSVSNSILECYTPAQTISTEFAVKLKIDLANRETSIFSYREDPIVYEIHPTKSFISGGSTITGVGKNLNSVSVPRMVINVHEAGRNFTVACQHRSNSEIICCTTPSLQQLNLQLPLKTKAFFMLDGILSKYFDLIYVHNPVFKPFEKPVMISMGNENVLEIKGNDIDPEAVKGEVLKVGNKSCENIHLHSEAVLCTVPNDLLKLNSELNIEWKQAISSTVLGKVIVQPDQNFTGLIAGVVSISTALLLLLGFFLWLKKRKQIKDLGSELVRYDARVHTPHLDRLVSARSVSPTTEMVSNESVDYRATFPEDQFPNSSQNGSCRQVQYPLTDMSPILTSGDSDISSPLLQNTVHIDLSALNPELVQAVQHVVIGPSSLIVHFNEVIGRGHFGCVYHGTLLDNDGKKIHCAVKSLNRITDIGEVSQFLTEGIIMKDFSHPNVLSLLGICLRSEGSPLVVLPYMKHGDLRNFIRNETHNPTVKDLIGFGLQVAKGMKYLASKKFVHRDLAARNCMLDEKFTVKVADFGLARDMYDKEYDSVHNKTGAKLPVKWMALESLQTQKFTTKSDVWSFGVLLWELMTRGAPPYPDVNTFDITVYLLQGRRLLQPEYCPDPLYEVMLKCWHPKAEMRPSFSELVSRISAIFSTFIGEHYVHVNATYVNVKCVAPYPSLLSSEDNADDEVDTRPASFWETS

[3] = biological target: T3, panel of 442 kinases (Homo sapiens, UniProt P10721, D816V); conditions: kinase KIT(D816V), second of two lines so named (r207); for remaining activity at 1 µM: read-out: % of control at 1 µM
T3 construct: purchased Ambit Biosciences (scanMAXX KINOMEscan)
T3 sequence (P10721 26-976 D816V): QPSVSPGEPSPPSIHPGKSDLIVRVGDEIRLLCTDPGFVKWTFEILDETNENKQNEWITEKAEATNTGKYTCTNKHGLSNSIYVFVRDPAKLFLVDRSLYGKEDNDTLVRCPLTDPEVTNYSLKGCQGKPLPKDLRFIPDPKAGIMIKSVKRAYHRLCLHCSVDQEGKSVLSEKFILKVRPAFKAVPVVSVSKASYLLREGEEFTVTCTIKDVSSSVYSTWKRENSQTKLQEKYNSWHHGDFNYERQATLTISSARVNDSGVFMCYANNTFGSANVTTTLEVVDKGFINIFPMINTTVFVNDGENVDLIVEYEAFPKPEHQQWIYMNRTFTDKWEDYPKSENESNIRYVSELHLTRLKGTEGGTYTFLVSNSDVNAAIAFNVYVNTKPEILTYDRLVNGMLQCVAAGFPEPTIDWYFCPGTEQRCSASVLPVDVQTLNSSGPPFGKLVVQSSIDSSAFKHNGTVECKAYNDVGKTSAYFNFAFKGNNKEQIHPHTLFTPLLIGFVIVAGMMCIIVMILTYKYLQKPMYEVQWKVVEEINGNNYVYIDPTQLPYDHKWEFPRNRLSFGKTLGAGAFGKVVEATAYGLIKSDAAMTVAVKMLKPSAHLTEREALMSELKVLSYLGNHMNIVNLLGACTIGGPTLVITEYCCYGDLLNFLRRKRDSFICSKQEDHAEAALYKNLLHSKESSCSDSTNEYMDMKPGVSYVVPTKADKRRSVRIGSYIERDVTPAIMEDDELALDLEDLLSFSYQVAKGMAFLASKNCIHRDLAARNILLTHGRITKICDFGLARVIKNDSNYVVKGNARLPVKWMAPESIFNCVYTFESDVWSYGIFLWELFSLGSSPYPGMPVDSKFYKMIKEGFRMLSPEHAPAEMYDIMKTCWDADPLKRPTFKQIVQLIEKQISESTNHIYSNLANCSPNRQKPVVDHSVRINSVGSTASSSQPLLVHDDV

[4] = biological target: T4, panel of 442 kinases (Homo sapiens, UniProt P53355); conditions: DAPK1; for remaining activity at 1 µM: read-out: % of control at 1 µM
T4 construct: purchased Ambit Biosciences (scanMAXX KINOMEscan)
T4 sequence (P53355 whole entry): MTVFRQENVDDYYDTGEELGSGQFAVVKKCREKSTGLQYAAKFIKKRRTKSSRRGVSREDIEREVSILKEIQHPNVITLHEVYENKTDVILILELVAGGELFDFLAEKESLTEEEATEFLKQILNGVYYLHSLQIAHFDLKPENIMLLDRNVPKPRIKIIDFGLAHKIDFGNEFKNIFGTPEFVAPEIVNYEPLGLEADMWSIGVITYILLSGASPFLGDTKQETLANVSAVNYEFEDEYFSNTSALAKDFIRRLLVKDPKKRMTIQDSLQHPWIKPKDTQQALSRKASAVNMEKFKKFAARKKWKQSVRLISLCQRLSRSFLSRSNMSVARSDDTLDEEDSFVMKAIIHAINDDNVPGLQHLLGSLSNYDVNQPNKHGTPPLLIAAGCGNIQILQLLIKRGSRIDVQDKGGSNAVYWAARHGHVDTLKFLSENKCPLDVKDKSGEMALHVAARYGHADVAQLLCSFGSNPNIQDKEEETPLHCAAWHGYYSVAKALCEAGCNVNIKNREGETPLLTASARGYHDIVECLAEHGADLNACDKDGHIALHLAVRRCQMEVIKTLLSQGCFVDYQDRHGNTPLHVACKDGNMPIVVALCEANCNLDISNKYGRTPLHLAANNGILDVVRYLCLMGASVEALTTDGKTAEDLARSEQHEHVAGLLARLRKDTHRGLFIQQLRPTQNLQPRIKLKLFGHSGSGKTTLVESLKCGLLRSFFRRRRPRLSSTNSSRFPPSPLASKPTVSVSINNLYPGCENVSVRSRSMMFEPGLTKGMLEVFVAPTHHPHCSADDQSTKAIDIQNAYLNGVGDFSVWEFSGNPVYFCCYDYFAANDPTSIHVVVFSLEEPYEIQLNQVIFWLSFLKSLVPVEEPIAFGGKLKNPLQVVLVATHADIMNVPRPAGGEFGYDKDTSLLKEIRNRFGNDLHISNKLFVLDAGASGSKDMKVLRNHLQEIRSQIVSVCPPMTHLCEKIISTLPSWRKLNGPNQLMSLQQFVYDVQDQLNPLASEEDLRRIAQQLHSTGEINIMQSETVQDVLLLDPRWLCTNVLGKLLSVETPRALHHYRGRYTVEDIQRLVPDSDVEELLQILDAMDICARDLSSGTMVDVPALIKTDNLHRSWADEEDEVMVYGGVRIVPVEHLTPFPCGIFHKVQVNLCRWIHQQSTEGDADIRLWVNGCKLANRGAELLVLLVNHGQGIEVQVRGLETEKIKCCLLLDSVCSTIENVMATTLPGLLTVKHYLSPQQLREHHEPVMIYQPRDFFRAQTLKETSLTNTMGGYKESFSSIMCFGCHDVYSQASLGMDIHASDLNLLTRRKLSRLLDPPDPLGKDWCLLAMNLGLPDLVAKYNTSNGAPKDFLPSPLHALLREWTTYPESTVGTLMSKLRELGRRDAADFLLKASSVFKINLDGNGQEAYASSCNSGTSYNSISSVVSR

[5] = biological target: T5, panel of 442 kinases (Homo sapiens, UniProt Q16288); conditions: kinase TRKC; for remaining activity at 1 µM: read-out: TRKC (% of control at 1 µM)
T5 construct: purchased Ambit Biosciences (scanMAXX KINOMEscan)

[6] = biological target: T6, panel of 442 kinases (Homo sapiens, UniProt Q16832); conditions: DDR2; for remaining activity at 1 µM: read-out: % of control at 1 µM
T6 construct: purchased Ambit Biosciences (scanMAXX KINOMEscan)
T6 sequence (Q16832 22-855): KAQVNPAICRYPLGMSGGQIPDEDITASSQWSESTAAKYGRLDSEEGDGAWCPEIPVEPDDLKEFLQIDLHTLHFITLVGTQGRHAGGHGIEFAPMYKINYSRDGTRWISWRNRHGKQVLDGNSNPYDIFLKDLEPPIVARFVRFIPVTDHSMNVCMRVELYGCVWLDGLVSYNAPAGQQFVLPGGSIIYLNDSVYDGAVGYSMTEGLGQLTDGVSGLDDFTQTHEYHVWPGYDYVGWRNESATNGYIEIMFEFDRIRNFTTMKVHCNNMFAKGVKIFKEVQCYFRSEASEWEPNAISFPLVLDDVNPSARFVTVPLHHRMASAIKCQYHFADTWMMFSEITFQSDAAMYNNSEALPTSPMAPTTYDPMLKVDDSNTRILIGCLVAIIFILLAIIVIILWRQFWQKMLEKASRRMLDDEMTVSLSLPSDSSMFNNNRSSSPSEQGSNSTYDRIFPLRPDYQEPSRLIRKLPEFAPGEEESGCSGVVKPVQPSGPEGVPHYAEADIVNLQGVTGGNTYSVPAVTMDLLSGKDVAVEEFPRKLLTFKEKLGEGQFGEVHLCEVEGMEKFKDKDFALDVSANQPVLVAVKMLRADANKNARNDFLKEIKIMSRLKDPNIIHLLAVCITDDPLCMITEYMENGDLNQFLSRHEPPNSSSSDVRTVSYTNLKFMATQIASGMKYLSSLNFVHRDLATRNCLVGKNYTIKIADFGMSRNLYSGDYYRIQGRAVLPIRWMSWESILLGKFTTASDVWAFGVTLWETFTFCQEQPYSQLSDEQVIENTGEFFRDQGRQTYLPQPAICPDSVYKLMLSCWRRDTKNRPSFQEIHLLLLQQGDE

[7] = biological target: T7, panel of 442 kinases (Homo sapiens, UniProt Q32MK0); conditions: kinase MLCK; for remaining activity at 1 µM: read-out: % of control at 1 µM
T7 construct: purchased Ambit Biosciences (scanMAXX KINOMEscan)
T7 sequence (Q32MK0 1-819): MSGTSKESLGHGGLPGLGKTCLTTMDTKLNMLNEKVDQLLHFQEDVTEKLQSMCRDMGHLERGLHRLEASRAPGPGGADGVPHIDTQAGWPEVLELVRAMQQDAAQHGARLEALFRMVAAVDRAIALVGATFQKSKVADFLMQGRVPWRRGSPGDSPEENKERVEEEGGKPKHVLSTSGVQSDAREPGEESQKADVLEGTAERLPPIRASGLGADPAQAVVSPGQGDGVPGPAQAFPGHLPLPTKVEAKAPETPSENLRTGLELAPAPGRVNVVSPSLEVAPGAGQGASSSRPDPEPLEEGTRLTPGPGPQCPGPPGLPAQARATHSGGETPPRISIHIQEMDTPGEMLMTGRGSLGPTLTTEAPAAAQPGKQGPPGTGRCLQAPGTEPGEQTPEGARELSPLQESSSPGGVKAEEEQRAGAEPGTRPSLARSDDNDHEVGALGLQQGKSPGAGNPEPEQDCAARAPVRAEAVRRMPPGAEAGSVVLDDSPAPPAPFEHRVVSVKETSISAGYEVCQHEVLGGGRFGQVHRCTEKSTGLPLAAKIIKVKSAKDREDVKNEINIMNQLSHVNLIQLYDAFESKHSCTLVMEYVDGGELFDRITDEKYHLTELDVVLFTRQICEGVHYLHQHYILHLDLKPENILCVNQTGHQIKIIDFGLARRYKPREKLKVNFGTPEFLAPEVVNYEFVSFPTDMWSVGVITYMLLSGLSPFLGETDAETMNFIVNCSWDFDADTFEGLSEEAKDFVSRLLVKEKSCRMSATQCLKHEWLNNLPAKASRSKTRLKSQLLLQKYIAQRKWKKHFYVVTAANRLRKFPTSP

[8] = biological target: T8, panel of 442 kinases (Homo sapiens, UniProt Q9BX84); conditions: kinase TRPM6; for remaining activity at 1 µM: read-out: TRPM6 (% of control at 1 µM)
T8 construct: purchased Ambit Biosciences (scanMAXX KINOMEscan)

[9] = biological target: T9, panel of 442 kinases (Homo sapiens, UniProt Q9H0K1); conditions: kinase SIK2; for remaining activity at 1 µM: read-out: SIK2 (% of control at 1 µM)
T9 construct: purchased Ambit Biosciences (scanMAXX KINOMEscan)

[10] = biological target: T10, panel of 442 kinases (Homo sapiens, UniProt Q9Y4K4); conditions: kinase MAP4K5; for remaining activity at 1 µM: read-out: % of control at 1 µM
T10 construct: purchased Ambit Biosciences (scanMAXX KINOMEscan)

[11] = 10 µM, read-out: % of control at 10 µM

T1 sequence (P00519 whole entry F317I): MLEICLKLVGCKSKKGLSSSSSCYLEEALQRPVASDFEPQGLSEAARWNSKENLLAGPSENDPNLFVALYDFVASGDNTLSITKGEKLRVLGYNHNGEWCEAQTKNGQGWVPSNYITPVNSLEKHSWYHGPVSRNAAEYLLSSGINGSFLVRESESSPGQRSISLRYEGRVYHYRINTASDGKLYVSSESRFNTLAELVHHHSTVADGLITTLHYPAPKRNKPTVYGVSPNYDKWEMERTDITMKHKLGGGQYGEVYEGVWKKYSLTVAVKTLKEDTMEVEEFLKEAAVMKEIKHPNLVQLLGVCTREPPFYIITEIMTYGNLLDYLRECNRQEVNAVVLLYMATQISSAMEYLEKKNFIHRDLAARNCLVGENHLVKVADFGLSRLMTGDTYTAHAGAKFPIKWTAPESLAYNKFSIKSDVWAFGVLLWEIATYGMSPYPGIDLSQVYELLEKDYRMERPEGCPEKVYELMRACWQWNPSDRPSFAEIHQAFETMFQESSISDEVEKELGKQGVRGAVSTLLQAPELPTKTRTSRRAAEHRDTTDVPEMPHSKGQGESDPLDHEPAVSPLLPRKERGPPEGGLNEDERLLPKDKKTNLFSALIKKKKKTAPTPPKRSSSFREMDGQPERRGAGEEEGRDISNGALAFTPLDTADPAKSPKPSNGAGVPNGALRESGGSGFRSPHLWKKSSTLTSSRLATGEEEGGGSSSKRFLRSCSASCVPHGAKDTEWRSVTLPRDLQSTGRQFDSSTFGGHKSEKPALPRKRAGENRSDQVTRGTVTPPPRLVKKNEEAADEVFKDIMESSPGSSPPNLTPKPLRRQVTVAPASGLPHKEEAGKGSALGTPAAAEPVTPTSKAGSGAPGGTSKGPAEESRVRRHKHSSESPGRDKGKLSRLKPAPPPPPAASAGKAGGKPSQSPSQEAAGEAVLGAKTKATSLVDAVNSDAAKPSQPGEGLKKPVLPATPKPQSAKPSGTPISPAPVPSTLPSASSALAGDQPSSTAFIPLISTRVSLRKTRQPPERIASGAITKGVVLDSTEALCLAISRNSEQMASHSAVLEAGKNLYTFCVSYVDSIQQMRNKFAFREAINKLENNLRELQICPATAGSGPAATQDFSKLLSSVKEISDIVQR

SMILES	remaining activity at 1 µM ([1]; ABL1(F317I)-nonphosphorylated)	remaining activity at 1 µM ([1]; ABL1(F317I)-phosphorylated)	remaining activity at 1 µM [2]	remaining activity at 1 µM [3]	remaining activity at 1 µM [4]	remaining activity at 1 µM [5]	remaining activity at 1 µM [6]	remaining activity at 1 µM [7]	remaining activity at 1 µM [8]	remaining activity at 1 µM [9]	remaining activity at 1 µM [10]	also measured
Nc1cc(C(F)(F)F)c(-c2cc(N3CCOCC3)nc(N3CCOCC3)n2)cn1 [Buparlisib]	100%	78%	100%	100%	93%	76%	96%	100%	76%	100%	96%	remaining activity at 10 µM ([1]; ABL1(F317I)-nonphosphorylated): 100%; remaining activity at 10 µM ([1]; ABL1(F317I)-phosphorylated): 100%; remaining activity at 10 µM [2, 11]: 99%; remaining activity at 10 µM [3, 11]: 100%; remaining activity at 10 µM [4, 11]: 77%; remaining activity at 10 µM ([5]; 10 µM, read-out: TRKC (% of control at 10 µM)): 76%; remaining activity at 10 µM [6, 11]: 84%; remaining activity at 10 µM [7, 11]: 100%; remaining activity at 10 µM ([8]; 10 µM, read-out: TRPM6 (% of control at 10 µM)): 75%; remaining activity at 10 µM ([9]; 10 µM, read-out: SIK2 (% of control at 10 µM)): 93%; remaining activity at 10 µM [10, 11]: 100%
Cn1c(=O)n(-c2ccc(C(C)(C)C#N)cc2)c2c3cc(-c4cnc5ccccc5c4)ccc3ncc21 [Dactolisib, 2-methyl-2-[4-(3-methyl-2-oxo-8-quinolin-3-yl-2,3-dihydroimidazo[4,5-c]quinolin-1-yl)-phenyl] propionitrile]	100%	100%	–	59%	76%	85%	97%	80%	62%	82%	55%	–
COc1ncc(-c2ccc3nccc(-c4ccnnc4)c3c2)cc1NS(=O)(=O)c1ccc(F)cc1F [Omipalisib]	100%	100%	100%	86%	93%	100%	100%	100%	100%	100%	100%	–
FC(F)c1nc2ccccc2n1-c1nc(N2CCOCC2)nc(N2CCOCC2)n1 [ZSTK474, 2-(difluoromethyl)-1-[4,6-di(4-morpholinyl)-1,3,5-triazin-2-yl]-1H-benzimidazole]	100%	88%	92%	100%	86%	100%	100%	92%	74%	78%	99%	–
